Experimental data taken from patent US8044057B2, “Methods for suppressing an immune response or treating a proliferative disorder” (The United States of America as represented by the …, priority 2003, dated 2011).

Tests used:
Format in all cases: cell-based, human
[1] = system: A549 cells; experiment: A549 cell count after 24 hours with inhibitors; details: 100 μM LY303511, rapamycin 200 ng/ml, 200 nM wortmannin, 100 μM LY294002
Method: FIG. 2A is a bar graph showing LY303511 blocks cell proliferation, DNA synthesis, and cell cycle progression in A549 cells. A. A549 cells (80,000 cells per 35-mm dish) were grown for 1 day in medium with FBS before the addition of 0.1% DMSO, 100 μM LY303511, rapamycin, 200 ng/ml, 200 nM wortmannin, or 100 μM LY294002 for 24 hours. Cells were then incubated with trypsin, collected, and counted. Data are the means of cells/well×10^−4 ±SEM from duplicate assays in three experiments. *p<0.05 by Student's t-test. FIG. 2B is a line graph from results obtained when A549 cells (4,000 per well) in 96-well plates were grown in medium with FBS for 24 h before the addition of […] plus 0-200 μM LY303511 without or with rapamycin, 200 ng/ml, or with rapamycin alone (0-200 ng/ml). BrDU incorporation (absorbance at 490/465) was measured by in situ ELISA as per the manufacturer's instructions (BrDU detection kit, Roche). For each experiment, BrDU in cells incubated with inhibitors was expressed as a percentage of that in cells treated with 0.2% DMSO control (% control). Mean absorbance measures for controls=100% in each experiment were 0.9±0.3, 0.8±0.3, and 0.8±0.3. […]
Additionally, A549 cells (80,000 cells per well), were grown for 24 hours before addition of inhibitors (FIG. 2A). After 24 hours, trypan blue-stained cells were counted using a hemocytometer. […]

[2] = system: A549 cells; experiment: BrDU incorporation (in situ ELISA) in A549 cells; details: 24 hours, 0-200 μM LY303511 without or with rapamycin 200 ng/ml
[3] = system: P70 S6 kinase; experiment: Western blot of phospho-p70 S6 kinase T389 in PASM cells
Method: FIGS. 4A-4D are bar graphs and digital images showing that LY303511 inhibits serum-stimulated phosphorylation of S6K and Akt (FIGS. 4A and 4B), as well as proliferation in PASM cells (FIGS. 4C and 4D). After incubation in serum-free medium for 24 hours, PASM cells were incubated without or with 100 μM LY303511, rapamycin, 200 ng/ml, or 200 nM wortmannin (FIG. 4A), or 0-100 μM LY303511 (FIG. 4B), for 1 hour before the addition of 10% FBS for 30 min and preparation of cell lysates. Equal amounts of protein (20 μg/gel) were separated by SDS-PAGE and transferred to nitrocellulose membranes before immunodetection of phospho-p70 S6 kinase T389 (pS6K) orphospho-Akt S473 (pAkt) by Western blot. Data are from one experiment representative of five.
HPASM cells were purchased from Clonetics and passaged according to the manufacturer's instructions. Cells were plated in 100 mm dishes, and allowed to grow to near confluence before serum starvation for 24 hours. […] Cells were homogenized and the indicated proteins were detected by Western blot.
Measurement of protein phosphorylation: A549 cells were incubated in serum-free medium without or with inhibitors for 1 hour, as indicated, before incubation for 30 minutes with a mixture of LPS, 100 μg/ml (Sigma; St. Louis, Mo.) and IFN-γ, 100 U/ml (Roche; Nutley, N.J.). […] Integrated band densities were quantified using Scion Image beta 3b software.

For `O=c1cc(N2CCNCC2)oc2c(-c3ccccc3)cccc12` [LY303511, 2-(4-piperazinyl)-8-phenyl-4H-1-benzopyran-4-one], the “cell proliferation (cell number)” value [1] was “significant inhibitory effect”, the “BrDu uptake (DNA synthesis, proliferation)” value [2] was “concentration-dependent reduction” and the IC50 ([3]; Homo sapiens, pulmonary artery smooth muscle cells, densitometry, read-out: IC50 for inhibition of S6K phosphorylation) was about 1 µM. The “basal and serum-stimulated phosphorylation of P70 S6 kinase” value ([3]; PASM cells, 10% FBS for 30 minutes) was “inhibited basal and serum-stimulate phosphorylation of P70 S6 kinase”.
